The record followed here is patent publication US20130130985A1 (priority 2010, published 2013).

The conditions of data set [1]: phosphate buffer pH 7.4, 37° C., over a period of 48 h.
The nature of data set [2]: Stability assay in rat plasma and human serum (metabolic half life). To be noted: Half life (h), 37° C., matrix of the values not specified.
Method: 300 μL rat plasma and human serum (Sigma Aldrich) was incubated at 37° C. for 30 min. 50 mL of peptide sample (0.3 mM) in 0.1 M phosphate buffer, pH 7.2 was added to the rat plasma and human serum. The vortexed mixture was incubated at 37° C.
The target in data set [3] is T1, hOTR (Homo sapiens, UniProt P30559).
T1 construct: expressed in transfected cells; host or cells: COS-1
T1 sequence (P30559 1-389): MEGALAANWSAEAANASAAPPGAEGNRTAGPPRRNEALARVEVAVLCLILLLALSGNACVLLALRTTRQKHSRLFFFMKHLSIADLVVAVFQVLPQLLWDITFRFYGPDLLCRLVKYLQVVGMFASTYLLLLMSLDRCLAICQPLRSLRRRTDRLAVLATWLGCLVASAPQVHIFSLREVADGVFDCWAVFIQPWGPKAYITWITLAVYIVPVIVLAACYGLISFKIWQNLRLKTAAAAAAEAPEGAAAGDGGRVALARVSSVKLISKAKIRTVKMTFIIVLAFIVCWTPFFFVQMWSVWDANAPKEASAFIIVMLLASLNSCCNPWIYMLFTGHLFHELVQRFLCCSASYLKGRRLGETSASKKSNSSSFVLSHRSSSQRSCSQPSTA
The data set is described as follows: Functional IP-One HTRF assay. The class given is cell-based. The following applies: for Emax: read-out: hOTR Emax. How it is done: (§1) Cells were lysed by the addition of the HTRF reagents (the europium cryptate-labeled anti-IP1 antibody and the d2-labeled IP1 analogue) diluted in lysis buffer. The assays were incubated for 1 h at room temperature.
(In general: Time-resolved FRET reads energy transfer from a long-lived donor to a nearby acceptor.)

The target of data set [4] is T2, hV1bR (Homo sapiens, UniProt P47901).
T2 construct: expressed in transfected cells; host or cells: COS-1
T2 sequence (P47901 1-424): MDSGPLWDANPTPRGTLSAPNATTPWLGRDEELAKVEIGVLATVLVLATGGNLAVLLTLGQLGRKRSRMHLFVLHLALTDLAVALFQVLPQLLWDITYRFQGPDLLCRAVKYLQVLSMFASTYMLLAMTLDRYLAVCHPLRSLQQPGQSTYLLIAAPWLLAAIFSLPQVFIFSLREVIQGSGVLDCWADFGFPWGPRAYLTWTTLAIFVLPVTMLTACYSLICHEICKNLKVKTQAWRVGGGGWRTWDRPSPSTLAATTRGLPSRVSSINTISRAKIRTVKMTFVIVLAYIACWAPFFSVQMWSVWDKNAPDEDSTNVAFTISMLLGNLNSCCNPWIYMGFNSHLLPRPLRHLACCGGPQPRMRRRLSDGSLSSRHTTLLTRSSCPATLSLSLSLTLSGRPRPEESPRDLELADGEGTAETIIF
The data set is described as follows: Functional IP-One HTRF assay. The class given is cell-based. As for the experimental part: as §1

Data set [5] has as its target T1, hOTR. Briefly: Functional FLIPR assay (calcium signalling). The class given is cell-based. How it is done: (§2) To allow for complete de-esterification of the dye, cells were washed 5-10 min with PSS before transfer to a FLIPR^TETRA (Molecular Devices, Sunnyvale, Calif.) fluorescent plate reader. […] The baseline fluorescence was set to a minimum of 1000 arbitrary fluorescence units by adjusting camera gain and excitation intensity. Compounds were added as 3× concentrated stock solutions in PSS, with 10 baseline fluorescence readings prior to compound addition followed by fluorescence reading every second for 180 s.
(§3) As previously described, raw fluorescence data was converted to ΔF/F values by subtracting baseline fluorescence readings from subsequent time points and dividing by baseline fluorescence values. […] A 4-parameter Hill equation with Hill coefficient=1 was fitted to the data using GraphPad Prism (Version 4.00, San Diego, Calif.).

Data set [6] deals with T3, hV1aR (Homo sapiens, UniProt P37288).
T3 construct: expressed in transfected cells; host or cells: COS-1
T3 sequence (P37288 whole entry): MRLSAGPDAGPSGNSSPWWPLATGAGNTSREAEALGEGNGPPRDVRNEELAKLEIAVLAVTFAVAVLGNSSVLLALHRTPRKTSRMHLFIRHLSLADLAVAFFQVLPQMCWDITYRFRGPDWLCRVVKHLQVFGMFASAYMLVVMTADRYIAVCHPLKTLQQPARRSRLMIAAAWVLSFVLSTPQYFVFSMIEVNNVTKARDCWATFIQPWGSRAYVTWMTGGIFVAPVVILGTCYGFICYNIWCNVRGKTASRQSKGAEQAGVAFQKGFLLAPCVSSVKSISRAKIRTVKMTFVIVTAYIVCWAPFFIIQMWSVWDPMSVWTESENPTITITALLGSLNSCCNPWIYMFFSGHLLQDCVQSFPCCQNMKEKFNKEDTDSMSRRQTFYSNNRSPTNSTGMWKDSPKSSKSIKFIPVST
The data set is described as follows: Functional FLIPR assay (calcium signalling). The class given is cell-based. How it is done: as §2, §3

Data set [7] concerns the target T2, hV1bR. The data set is described as follows: Functional FLIPR assay (calcium signalling). The class given is cell-based. As for the experimental part:
as §2, §3

Data set [8] deals with T1, hOTR. Briefly: Radioligand binding assay, displacement of 3H-OT, COS-1 membranes. In general terms: Loss of bound radioactivity is the signal in a displacement assay; it reports binding, not function.
In data set [9] the target is T2, hV1bR. The data set is described as follows: Radioligand binding assay, displacement of 3H-AVP, COS-1 membranes.
In data set [10] the target is T3, hV1aR. Briefly: Functional IP-One HTRF assay. The class given is cell-based. How it is done:
as §1

Where a SMILES comes first, the peptide text is derived from it.

`NC(=O)CC[C@@H]1NC(=O)[C@H](Cc2ccccc2)NC(=O)[C@H](Cc2ccc(O)cc2)NC(=O)[C@@H](N)CSSC[C@@H](C(=O)N2CCC[C@H]2C(=O)N[C@@H](CCCN=C(N)N)C(=O)NCC(N)=O)NC(=O)[C@H](CC(N)=O)NC1=O` [AVP, arginine-vasopressin]: in [1], the “degradation in phosphate buffer” value is on record as “no degradation was observed”. For the same compound, in data set [2], the half-life – broadly, the time in which the quantity being followed falls by half – at 0.043 mM was 2 h.

In the case of `CC[C@H](C)[C@@H]1NC(=O)[C@H](Cc2ccc(O)cc2)NC(=O)CCSSC[C@@H](C(=O)N2CCC[C@H]2C(=O)N[C@@H](CC(C)C)C(=O)NCC(N)=O)NC(=O)[C@H](CC(N)=O)NC(=O)[C@H](CCC(N)=O)NC1=O` [dOT], the EC50 (as a rule, the concentration needed to bring the measured effect to its halfway point) was found to be 0.71 nM at hOTR [3] (IP-One assay, COS-1); 470 ± 422 nM on hV1bR [4] (IP-One assay, COS-1); 0.39 nM on hOTR [5] (FLIPR assay, COS-1); 46.1 nM at hV1aR [6] (FLIPR assay, COS-1); 15.9 ± 5.96 nM on hV1bR [7] (FLIPR assay, COS-1). The Emax – broadly, the size of the effect at its maximum, as opposed to the concentration needed – was 100% at hOTR [3]; 67 ± 10% on hV1bR [4]; 89% at hOTR [5]; 54% at hV1aR [6]; 100% at hV1bR [7]. Moreover, the IC50 (as a rule, the concentration needed to halve the response being measured) was 1.7 nM at hOTR [8] and 351 ± 125 nM at hV1bR [9].

For `CC[C@H](C)[C@@H]1NC(=O)[C@H](Cc2ccc(O)cc2)NC(=O)[C@@H](N)CSSC[C@@H](C(=O)N2CCC[C@H]2C(=O)N[C@@H](CC(C)C)C(=O)NCC(N)=O)NC(=O)[C@H](CC(N)=O)NC(=O)[C@H](CCC(N)=O)NC1=O` [OT, Oxytocin], the Emax at hV1aR [10] stood at 79 ± 9%; on hV1aR [6], 71%. Also, the “degradation in phosphate buffer” value in data set [1] is “no degradation was observed”.

With `CC[C@H](C)[C@@H]1NC(=O)[C@H](Cc2ccc(O)cc2)NC(=O)[C@@H](N)CCSC[C@@H](C(=O)N2CCC[C@H]2C(=O)N[C@@H](CC(C)C)C(=O)NCC(N)=O)NC(=O)[C@H](CC(N)=O)NC(=O)[C@H](CCC(N)=O)NC1=O` [[CH2—S]-OT] (HELM PEPTIDE1{[N[C@@H](CC[*:3])C(=O)[*:2]].Y.I.Q.N.C.P.L.G.[am]}$PEPTIDE1,PEPTIDE1,1:R3-6:R3$$$V2.0; N-terminus and C-terminus assumed), the Emax on hOTR [3] is 64 ± 14%; at hV1aR [10], 75 ± 8%.

Consider `CC[C@H](C)[C@@H]1NC(=O)[C@H](Cc2ccc(O)cc2)NC(=O)[C@@H](N)CSSC[C@@H](C(=O)N2CCC[C@H]2C(=O)N[C@@H](CC(C)C)C(=O)NCC(=O)O)NC(=O)[C@H](CC(N)=O)NC(=O)[C@H](CCC(N)=O)NC1=O` [[S—S]-OT-OH, OT-OH], for which, on hOTR [3] (compared to OT), the “drop in functional efficacy at the hOTR” value is 10-30 fold. Moreover, the Emax at hOTR [3] was found to be 82 ± 13%; on hV1aR [10], 77 ± 24%; on hV1bR [4] it was 96 ± 6%. Further, at hV1bR [4] (compared to OT), the “drop in functional efficacy at the hV1bR” value was 10-30 fold.
